According to PMC8892858 (ACS Omega, 2022):
Several values for one entry are separate records, joined by “and”; a condition that tells them apart may be missing. Equal values may be shown once. Entries after “also recorded” stand apart in the source; their conditions may differ. Where a name gives a salt, the structure may show the parent alone. Read-outs that look alike come from different tables or passages of the source.

Columns and labels:
[1] = system: A549 cells
[2] = system: rRVFVΔNSs::Katushka; assay: microbe, parasite or virus in culture; assay type: cell-based, Rift Valley fever virus; conditions: for IC50: read-out: IC50, dose-response curves of inhibition of RVFV infection (Figure 5A)
[3] = in vitro; conditions: human
[4] = system: rRVFVΔNSs::Katushka; assay type: cell-based, Rift Valley fever virus
[5] = system: A549 cells; assay type: cell-based, Human
[6] = system: rRVFVΔNSs::Katushka; assay type: cell-based, Rift Valley fever virus; remark: listed apart in the source
[7] = Rift Valley fever virus, A549, 16 h, read-out: EC50 value
[8] = Rift Valley fever virus, A549, 16 h

Compound | Selectivity index [2] | EC50 [2, 7] [µM] | CC50 [3] [µM] | further results
1-(4-(Benzhydryloxy)butyl)-4-phenylpiperazine [Compound 16] | – | – | – | CC50 [1]: > 300 µM; EC50 value [2]: reduced the antiviral activity significantly; EC50 ([2]; read-out: EC50 value): > 100 µM
NCCCNCCOc1ccc(-c2ccccc2)cc1 [Compound 1, N1-(2-(Biphenyl-4-yloxy)ethyl)propane-1,3-diamine·2HCl] | 7.1 | 12 ± 1.3 | 86 ± 9 | –
c1ccc(-c2ccc(OCCN3CCCCC3)cc2)cc1 [Compound 4d, 1-(2-(Biphenyl-4-yloxy)ethyl)piperidine] | – | > 100 | > 300 | –
c1ccc(-c2ccc(OCCN3CCOCC3)cc2)cc1 [Compound 4e, 4-(2-(Biphenyl-4-yloxy)ethyl)morpholine] | – | > 100 | > 300 | –
NCCCCCCOc1ccc(-c2ccccc2)cc1 [Compound 5a, 6-(Biphenyl-4-yloxy)hexan-1-amine·HCl] | 3.6 | 12.1 ± 2.1 | 44.6 ± 0.3 | –
NCCOc1ccc(-c2ccccc2)cc1 [Compound 5b, 2-(Biphenyl-4-yloxy)ethanamine·HCl] | 8.1 | 37.3 ± 0.5 | > 300 | –
NCCCOc1ccc(-c2ccccc2)cc1 [Compound 5c, 3-(Biphenyl-4-yloxy)propan-1-amine] | 3.8 | 37.8 ± 6.7 | 147 ± 4 | –
c1ccc(-c2ccc(OCCN3CCNCC3)cc2)cc1 [Compound 5f, 1-(2-(Biphenyl-4-yloxy)ethyl)piperazine] | 4.2 | 38.7 ± 11.6 | 165 ± 22.9 | –
c1ccc(-c2ccc(OCCCN3CCNCC3)cc2)cc1 [Compound 5g, 1-(3-(Biphenyl-4-yloxy)propyl)piperazine] | < 2 | > 100 | 203 ± 53.5 | –
CN1CCN(CCCCOc2ccc(-c3ccccc3)cc2)CC1 [Compound 8c, 1-(4-(Biphenyl-4-yloxy)butyl)-4-methylpiperazine] | 2.2 | 61.7 ± 17.6 | 136.2 ± 1.2 | inhibition of RVFV RNA expression (qRT-PCR) [4]: unable to inhibit the viral RNA expressions
c1ccc(-c2ccc(OCCCCN3CCNCC3)cc2)cc1 [Compound 9a, 1-(4-(Biphenyl-4-yloxy)butyl)piperazine] | 5.8 | 12.8 ± 0.2 | 74.8 ± 1.2 | –
c1ccc(-c2ccc(OCCCCCN3CCNCC3)cc2)cc1 [Compound 9b, 1-(5-(Biphenyl-4-yloxy)pentyl)piperazine] | – | 11.7 ± 1.8 | 44.2 ± 16.6 | –
c1ccc(-c2ccc(OCCCCN3CCN(c4ccccc4)CC3)cc2)cc1 [Compound 11, 1-(4-(Biphenyl-4-yloxy)butyl)-4-phenylpiperazine] | – | – | > 300 | inhibition of RVFV RNA expression (qRT-PCR) [4]: did not show any inhibition; EC50 value [2]: the antiviral activity was completely eliminated; also recorded: ND (no inhibition)
c1ccc(-c2cccc(OCCCCN3CCNCC3)c2)cc1 [Compound 13a, 1-(4-(Biphenyl-3-yloxy)butyl)piperazine·2HCl] | 10 and 10.4 | 13.8 ± 5.3 | 145 ± 5.5 | IC50 [2, 8]: 13.8 µM; DiBAC4(3) fluorescence intensity (membrane potential) [5]: increased DiBAC4(3) fluorescence intensity (depolarization); antiviral potency by time of addition [6]: active at early stages of the viral replication cycle, most likely during or just after virus entry; also recorded: progressively lost its potency when added at late stages of the infection cycle
c1ccc(-c2ccccc2OCCCCN2CCNCC2)cc1 [Compound 13b, 1-(4-(Biphenyl-2-yloxy)butyl)piperazine·2HCl] | > 4.7 | 63.5 ± 11.1 | > 300 | –
c1ccc(Cc2ccc(OCCCCN3CCNCC3)cc2)cc1 [Compound 13c, 1-(4-(4-Benzylphenoxy)butyl)piperazine·2HCl] | 9.1 | 15.4 ± 4.7 | 140.3 ± 0.8 | –
c1ccc(Cc2cccc(OCCCCN3CCNCC3)c2)cc1 [Compound 13d, 1-(4-(3-Benzylphenoxy)butyl)piperazine·2HCl] | 5.8 | 22.9 ± 5.2 | 134.2 ± 0.9 | –
c1ccc(Cc2ccccc2OCCCCN2CCNCC2)cc1 [Compound 13e, 1-(4-(2-Benzylphenoxy)butyl)piperazine·2HCl] | 4.7 | 31.2 ± 15.8 | 148.4 ± 1.3 | –
c1ccc(OCCCCN2CCNCC2)cc1 [Compound 13f, 1-(4-Phenoxybutyl)piperazine·2HCl] | – | – | > 300 | EC50 value [2]: completely removed the antiviral activity; also recorded: ND (no inhibition)
CC(=O)c1cccc(-c2ccc(OCCCCN3CCNCC3)cc2)c1 [Compound 13g, 1-(4′-(4-(Piperazin-1-yl)butoxy)biphenyl-3-yl)ethanone·2HCl] | – | 41.9 ± 27.3 | > 300 | –
CN(C)c1cccc(-c2ccc(OCCCCN3CCNCC3)cc2)c1 [Compound 13h, N,N-Dimethyl-4′-(4-(piperazin-1-yl)butoxy)biphenyl-3-amine·3HCl] | 5.3 | 15.5 ± 4.7 | 82.5 ± 15.2 | CC50 value [1]: high toxicity
CC(C)c1ccc(-c2ccc(OCCCCN3CCNCC3)cc2)cc1 [Compound 13i, 1-(4-(4′-Isopropylbiphenyl-4-yloxy)butyl)piperazine·2HCl] | 5.1 | 4.6 ± 0.3 | 23.5 ± 0.1 | –
CC(C)c1cccc(-c2ccc(OCCCCN3CCNCC3)cc2)c1 [Compound 13j, 1-(4-(3′-Isopropylbiphenyl-4-yloxy)butyl)piperazine·2HCl] | 5.4 | 4.7 ± 0.7 | 25.5 ± 8.9 | –
c1cc(C2CCCCC2)ccc1OCCCCN1CCNCC1 [Compound 13l, 1-(4-(4-Cyclohexylphenoxy)butyl)piperazine·2HCl] | 5.6 | 8.8 ± 0.5 | 49.9 ± 10.1 | –
c1cc(C23CC4CC(CC(C4)C2)C3)ccc1OCCCCN1CCNCC1 [Compound 13m, 1-(4-(4-Adamantylphenoxy)butyl)piperazine·2HCl] | 2.4 | 5.4 ± 1.2 | 13.1 | CC50 value [1]: Extreme toxicity
C=C[C@H]1C[N@@]2CC[C@H]1C[C@@H]2[C@@H](O)c1ccnc2ccc(OC)cc12 [quinidine, reference compound] | – | – | – | EC50 ([2]; Rift Valley fever virus, A549, 16 h, read-out: EC50 value, inhibition of RVFV infection (dose-response before membrane potential assay)): 146 µM; IC50 [2, 8]: 164 µM; DiBAC4(3) fluorescence intensity (membrane potential) [5]: increased DiBAC4(3) fluorescence intensity (depolarization)
